According to the kinase profiling compilation of Christmann-Franck et al. (2016):

Legend:
Test in all cases: KINOMEscan competition binding
Details in all cases: compound 10.0 µM
ACVRL1 (human) = ACVRL1 (human) (UniProt P37023)
AKT3 (human) = AKT3 (human) (UniProt Q9Y243)
AURKA (human) = AURKA (human) (UniProt O14965)
AURKC (human) = AURKC (human) (UniProt Q9UQB9)
BMPR2 (human) = BMPR2 (human) (UniProt Q13873)
BRSK2 (human) = BRSK2 (human) (UniProt Q8IWQ3)
CAMK1D (human) = CAMK1D (human) (UniProt Q8IU85)
CAMK2D (human) = CAMK2D (human) (UniProt Q13557)
CASK (human) = CASK (human) (UniProt O14936)
CDC42BPB (human) = CDC42BPB (human) (UniProt Q9Y5S2)
CHEK2 (human) = CHEK2 (human) (UniProt O96017)
CSK (human) = CSK (human) (UniProt P41240)
DAPK2 (human) = DAPK2 (human) (UniProt Q9UIK4)
DCLK3 (human) = DCLK3 (human) (UniProt Q9C098)
EIF2AK1 (human) = EIF2AK1 (human) (UniProt Q9BQI3)
EPHA4 (human) = EPHA4 (human) (UniProt P54764)
FER (human) = FER (human) (UniProt P16591)
FGFR4 (human) = FGFR4 (human) (UniProt P22455)
Sequence of FGFR4 (human) (P22455 whole entry, looked up): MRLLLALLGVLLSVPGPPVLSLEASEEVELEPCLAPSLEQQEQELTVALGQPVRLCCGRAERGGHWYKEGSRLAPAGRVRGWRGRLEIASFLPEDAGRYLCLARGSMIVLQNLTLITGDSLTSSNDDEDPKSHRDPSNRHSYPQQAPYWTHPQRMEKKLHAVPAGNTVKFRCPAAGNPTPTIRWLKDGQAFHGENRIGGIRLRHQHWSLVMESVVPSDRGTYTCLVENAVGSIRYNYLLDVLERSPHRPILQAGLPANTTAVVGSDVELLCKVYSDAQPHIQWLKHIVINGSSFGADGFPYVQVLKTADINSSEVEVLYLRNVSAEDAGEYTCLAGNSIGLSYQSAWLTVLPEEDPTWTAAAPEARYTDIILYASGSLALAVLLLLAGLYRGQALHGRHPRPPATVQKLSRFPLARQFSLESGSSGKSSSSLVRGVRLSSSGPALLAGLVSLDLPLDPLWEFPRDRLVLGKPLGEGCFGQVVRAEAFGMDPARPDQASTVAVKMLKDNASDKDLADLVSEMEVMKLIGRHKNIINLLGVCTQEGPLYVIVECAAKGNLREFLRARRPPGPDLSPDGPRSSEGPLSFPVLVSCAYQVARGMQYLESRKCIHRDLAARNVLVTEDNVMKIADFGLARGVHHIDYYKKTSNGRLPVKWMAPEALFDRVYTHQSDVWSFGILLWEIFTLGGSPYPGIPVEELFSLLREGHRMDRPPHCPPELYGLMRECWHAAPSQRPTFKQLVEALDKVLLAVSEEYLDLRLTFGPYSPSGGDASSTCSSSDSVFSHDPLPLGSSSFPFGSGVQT

HIPK2 (human) = HIPK2 (human) (UniProt Q9H2X6)
HIPK3 (human) = HIPK3 (human) (UniProt Q9H422)
INSRR (human) = INSRR (human) (UniProt P14616)
LIMK1 (human) = LIMK1 (human) (UniProt P53667)
MAP3K12 (human) = MAP3K12 (human) (UniProt Q12852)
MAP3K6 (human) = MAP3K6 (human) (UniProt O95382)
Sequence of MAP3K6 (human) (O95382 whole entry, looked up): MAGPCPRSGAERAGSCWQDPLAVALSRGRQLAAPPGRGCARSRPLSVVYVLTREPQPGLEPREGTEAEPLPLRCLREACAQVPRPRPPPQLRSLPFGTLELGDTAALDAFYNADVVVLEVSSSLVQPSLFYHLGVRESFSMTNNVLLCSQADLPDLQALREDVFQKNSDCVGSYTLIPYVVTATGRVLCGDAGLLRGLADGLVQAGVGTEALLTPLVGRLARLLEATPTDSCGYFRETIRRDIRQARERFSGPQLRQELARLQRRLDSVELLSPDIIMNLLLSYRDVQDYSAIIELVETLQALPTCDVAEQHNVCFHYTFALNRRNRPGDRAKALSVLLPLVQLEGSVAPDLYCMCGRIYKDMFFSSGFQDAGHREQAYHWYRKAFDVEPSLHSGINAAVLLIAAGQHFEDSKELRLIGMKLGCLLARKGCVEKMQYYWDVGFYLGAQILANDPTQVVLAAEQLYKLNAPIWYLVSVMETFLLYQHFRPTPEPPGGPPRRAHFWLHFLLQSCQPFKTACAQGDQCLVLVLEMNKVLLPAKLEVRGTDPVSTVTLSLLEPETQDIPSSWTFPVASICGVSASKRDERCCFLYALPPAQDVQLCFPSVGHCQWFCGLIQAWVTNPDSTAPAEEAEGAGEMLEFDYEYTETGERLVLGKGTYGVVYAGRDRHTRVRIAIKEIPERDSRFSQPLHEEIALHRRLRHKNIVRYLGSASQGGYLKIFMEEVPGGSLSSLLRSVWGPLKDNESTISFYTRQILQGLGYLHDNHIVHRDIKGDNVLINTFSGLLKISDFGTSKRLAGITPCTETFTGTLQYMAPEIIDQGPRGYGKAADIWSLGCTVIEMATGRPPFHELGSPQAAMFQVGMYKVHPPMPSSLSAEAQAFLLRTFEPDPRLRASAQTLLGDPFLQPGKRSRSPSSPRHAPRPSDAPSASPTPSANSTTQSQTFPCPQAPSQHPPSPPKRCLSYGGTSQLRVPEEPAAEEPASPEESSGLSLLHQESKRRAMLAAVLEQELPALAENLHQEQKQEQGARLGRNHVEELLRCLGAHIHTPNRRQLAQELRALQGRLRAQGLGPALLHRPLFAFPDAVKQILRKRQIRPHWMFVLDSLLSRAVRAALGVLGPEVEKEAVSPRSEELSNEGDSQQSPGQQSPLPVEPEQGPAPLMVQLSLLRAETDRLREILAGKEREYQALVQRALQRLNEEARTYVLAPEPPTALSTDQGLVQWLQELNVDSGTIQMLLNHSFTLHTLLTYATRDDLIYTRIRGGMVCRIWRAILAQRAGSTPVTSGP

MAP4K2 (human) = MAP4K2 (human) (UniProt Q12851)
MAP4K5 (human) = MAP4K5 (human) (UniProt Q9Y4K4)
MYLK (human) = MYLK (human) (UniProt Q15746)
NEK11 (human) = NEK11 (human) (UniProt Q8NG66)
Sequence of NEK11 (human) (Q8NG66 whole entry, looked up): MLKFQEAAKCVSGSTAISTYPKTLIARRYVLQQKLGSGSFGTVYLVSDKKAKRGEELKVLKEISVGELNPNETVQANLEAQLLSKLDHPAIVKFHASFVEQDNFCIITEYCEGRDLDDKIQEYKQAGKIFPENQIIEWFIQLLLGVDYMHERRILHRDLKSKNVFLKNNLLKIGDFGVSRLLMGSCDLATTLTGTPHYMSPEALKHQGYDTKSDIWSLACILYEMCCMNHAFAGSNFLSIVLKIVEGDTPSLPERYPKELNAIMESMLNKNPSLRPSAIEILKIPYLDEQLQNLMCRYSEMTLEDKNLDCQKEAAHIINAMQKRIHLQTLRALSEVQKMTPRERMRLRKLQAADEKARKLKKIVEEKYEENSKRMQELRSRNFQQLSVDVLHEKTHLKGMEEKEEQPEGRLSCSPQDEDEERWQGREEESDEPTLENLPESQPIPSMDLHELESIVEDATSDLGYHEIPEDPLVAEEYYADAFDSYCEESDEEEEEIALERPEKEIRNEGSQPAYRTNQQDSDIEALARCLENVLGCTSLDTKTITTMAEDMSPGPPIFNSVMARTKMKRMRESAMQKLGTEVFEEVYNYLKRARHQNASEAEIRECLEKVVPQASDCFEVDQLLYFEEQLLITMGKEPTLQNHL

NEK4 (human) = NEK4 (human) (UniProt P51957)
Sequence of NEK4 (human) (P51957 whole entry, looked up): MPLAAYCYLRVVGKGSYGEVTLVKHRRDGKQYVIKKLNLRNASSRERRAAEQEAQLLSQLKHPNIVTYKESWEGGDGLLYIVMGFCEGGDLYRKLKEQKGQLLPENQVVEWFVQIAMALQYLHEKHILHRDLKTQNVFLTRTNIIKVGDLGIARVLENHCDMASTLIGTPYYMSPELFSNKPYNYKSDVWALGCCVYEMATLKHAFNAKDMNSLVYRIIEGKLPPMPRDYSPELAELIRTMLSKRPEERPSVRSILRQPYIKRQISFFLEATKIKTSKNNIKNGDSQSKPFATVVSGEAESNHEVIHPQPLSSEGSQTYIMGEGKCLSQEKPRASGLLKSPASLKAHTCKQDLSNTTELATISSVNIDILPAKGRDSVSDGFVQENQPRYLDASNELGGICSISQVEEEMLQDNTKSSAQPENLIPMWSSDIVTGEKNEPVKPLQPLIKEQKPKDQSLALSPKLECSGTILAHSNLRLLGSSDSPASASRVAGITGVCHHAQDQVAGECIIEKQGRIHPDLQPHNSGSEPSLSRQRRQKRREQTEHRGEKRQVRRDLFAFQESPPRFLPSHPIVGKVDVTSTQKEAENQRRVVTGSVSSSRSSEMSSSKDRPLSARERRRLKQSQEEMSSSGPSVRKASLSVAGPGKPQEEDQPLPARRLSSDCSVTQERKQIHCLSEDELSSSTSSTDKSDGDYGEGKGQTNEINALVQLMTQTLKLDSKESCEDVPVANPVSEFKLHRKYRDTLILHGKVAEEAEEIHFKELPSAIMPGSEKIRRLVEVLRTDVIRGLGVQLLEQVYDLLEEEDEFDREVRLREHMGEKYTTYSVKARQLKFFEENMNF

NEK9 (human) = NEK9 (human) (UniProt Q8TD19)
PIM1 (human) = PIM1 (human) (UniProt P11309)
PRKAA1 (human) = PRKAA1 (human) (UniProt Q13131)
PRKCQ (human) = PRKCQ (human) (UniProt Q04759)
ROS1 (human) = ROS1 (human) (UniProt P08922)
RPS6KB1 (human) = RPS6KB1 (human) (UniProt P23443)
SRC (human) = SRC (human) (UniProt P12931)
SRPK1 (human) = SRPK1 (human) (UniProt Q96SB4)
Sequence of SRPK1 (human) (Q96SB4 whole entry, looked up): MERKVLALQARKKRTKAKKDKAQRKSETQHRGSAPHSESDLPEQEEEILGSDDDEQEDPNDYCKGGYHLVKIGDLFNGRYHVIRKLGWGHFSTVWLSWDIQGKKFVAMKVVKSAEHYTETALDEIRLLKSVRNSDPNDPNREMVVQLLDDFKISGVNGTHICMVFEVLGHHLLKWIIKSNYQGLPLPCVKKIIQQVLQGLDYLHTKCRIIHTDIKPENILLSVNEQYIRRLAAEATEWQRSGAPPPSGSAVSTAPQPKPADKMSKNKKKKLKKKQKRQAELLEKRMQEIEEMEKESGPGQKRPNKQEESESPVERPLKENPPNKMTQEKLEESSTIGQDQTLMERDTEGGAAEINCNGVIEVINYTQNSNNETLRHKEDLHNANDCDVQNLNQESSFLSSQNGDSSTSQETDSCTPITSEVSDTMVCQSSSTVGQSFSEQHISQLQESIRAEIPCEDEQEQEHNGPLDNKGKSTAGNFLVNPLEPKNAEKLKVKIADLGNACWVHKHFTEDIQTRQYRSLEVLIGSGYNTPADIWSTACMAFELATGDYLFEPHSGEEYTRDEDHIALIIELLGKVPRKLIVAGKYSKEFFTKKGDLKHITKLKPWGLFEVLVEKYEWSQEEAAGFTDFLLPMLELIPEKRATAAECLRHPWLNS

STK32B (human) = STK32B (human) (UniProt Q9NY57)
Sequence of STK32B (human) (Q9NY57 whole entry, looked up): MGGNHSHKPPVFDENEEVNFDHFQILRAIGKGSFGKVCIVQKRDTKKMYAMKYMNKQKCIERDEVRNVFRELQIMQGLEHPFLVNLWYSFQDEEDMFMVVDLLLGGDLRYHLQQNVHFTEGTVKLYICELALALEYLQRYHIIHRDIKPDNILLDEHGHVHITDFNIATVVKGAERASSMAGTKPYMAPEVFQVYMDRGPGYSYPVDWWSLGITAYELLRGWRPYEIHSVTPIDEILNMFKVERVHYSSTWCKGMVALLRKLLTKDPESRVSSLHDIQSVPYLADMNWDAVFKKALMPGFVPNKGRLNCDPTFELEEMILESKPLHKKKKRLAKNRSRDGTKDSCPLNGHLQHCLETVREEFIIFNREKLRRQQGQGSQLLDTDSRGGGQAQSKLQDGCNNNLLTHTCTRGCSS

STK39 (human) = STK39 (human) (UniProt Q9UEW8)
TNIK (human) = TNIK (human) (UniProt Q9UKE5)

Sequence of AURKA (human) (O14965 whole entry, looked up): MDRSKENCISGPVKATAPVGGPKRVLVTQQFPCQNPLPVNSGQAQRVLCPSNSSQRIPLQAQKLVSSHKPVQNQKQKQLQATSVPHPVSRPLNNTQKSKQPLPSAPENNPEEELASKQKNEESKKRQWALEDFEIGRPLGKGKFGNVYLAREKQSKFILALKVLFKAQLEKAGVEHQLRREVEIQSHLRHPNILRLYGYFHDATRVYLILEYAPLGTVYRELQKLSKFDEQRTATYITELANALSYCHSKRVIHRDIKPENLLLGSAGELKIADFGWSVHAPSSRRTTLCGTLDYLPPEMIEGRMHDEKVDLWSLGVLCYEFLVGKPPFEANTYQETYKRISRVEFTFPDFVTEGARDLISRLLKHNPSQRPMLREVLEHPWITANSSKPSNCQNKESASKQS

`CN(C)C/C=C/C(=O)Nc1ccc(C(=O)Nc2cccc(Nc3nccc(-c4cccnc4)n3)c2)cc1` gave a kinase still bound, per cent of control (ACVRL1 (human)) of 97%, a kinase still bound, per cent of control (AKT3 (human)) of 100% and a kinase still bound, per cent of control (AURKA (human)) of 11%. It also gave a kinase still bound, per cent of control (AURKC (human)) of 5.5%, a kinase still bound, per cent of control (BMPR2 (human)) of 100% and a kinase still bound, per cent of control (BRSK2 (human)) of 88%. The kinase still bound, per cent of control (CAMK1D (human)) was 100%, the kinase still bound, per cent of control (CAMK2D (human)) was 67% and the kinase still bound, per cent of control (CASK (human)) was 98%. The kinase still bound, per cent of control (CDC42BPB (human)) was 100%, the kinase still bound, per cent of control (CHEK2 (human)) was 86% and the kinase still bound, per cent of control (CSK (human)) was 97%. The kinase still bound, per cent of control (DAPK2 (human)) was 81%, the kinase still bound, per cent of control (DCLK3 (human)) was 100% and the kinase still bound, per cent of control (EIF2AK1 (human)) was 100%. It also gave a kinase still bound, per cent of control (EPHA4 (human)) of 100%, a kinase still bound, per cent of control (FER (human)) of 100% and a kinase still bound, per cent of control (FGFR4 (human)) of 100%. The kinase still bound, per cent of control (HIPK2 (human)) was 2.6%, the kinase still bound, per cent of control (HIPK3 (human)) was 4.2% and the kinase still bound, per cent of control (INSRR (human)) was 100%. For the same molecule, the kinase still bound, per cent of control (LIMK1 (human)) was 60%, the kinase still bound, per cent of control (MAP3K12 (human)) was 74% and the kinase still bound, per cent of control (MAP3K6 (human)) was 86%. It also gave a kinase still bound, per cent of control (MAP4K2 (human)) of 9%, a kinase still bound, per cent of control (MAP4K5 (human)) of 59% and a kinase still bound, per cent of control (MYLK (human)) of 64%. It also gave a kinase still bound, per cent of control (NEK11 (human)) of 100%, a kinase still bound, per cent of control (NEK4 (human)) of 100% and a kinase still bound, per cent of control (NEK9 (human)) of 22%. The kinase still bound, per cent of control (PIM1 (human)) was 95%, the kinase still bound, per cent of control (PRKAA1 (human)) was 100% and the kinase still bound, per cent of control (PRKCQ (human)) was 68%. For the same molecule, the kinase still bound, per cent of control (ROS1 (human)) was 76%, the kinase still bound, per cent of control (RPS6KB1 (human)) was 100% and the kinase still bound, per cent of control (SRC (human)) was 100%. The kinase still bound, per cent of control (SRPK1 (human)) was 26%, the kinase still bound, per cent of control (STK32B (human)) was 100% and the kinase still bound, per cent of control (STK39 (human)) was 58%. It also gave a kinase still bound, per cent of control (TNIK (human)) of 36%.
`O=C(Nc1cccc(Nc2ncc(Br)c(NCCc3cnc[nH]3)n2)c1)N1CCCC1` gave a kinase still bound, per cent of control (ACVRL1 (human)) of 100%, a kinase still bound, per cent of control (AKT3 (human)) of 100% and a kinase still bound, per cent of control (AURKA (human)) of 1.6%. For the same molecule, the kinase still bound, per cent of control (AURKC (human)) was 0%, the kinase still bound, per cent of control (BMPR2 (human)) was 13% and the kinase still bound, per cent of control (BRSK2 (human)) was 5.8%. It also gave a kinase still bound, per cent of control (CAMK1D (human)) of 4.6%, a kinase still bound, per cent of control (CAMK2D (human)) of 46% and a kinase still bound, per cent of control (CASK (human)) of 67%. The kinase still bound, per cent of control (CDC42BPB (human)) was 82%, the kinase still bound, per cent of control (CHEK2 (human)) was 24% and the kinase still bound, per cent of control (CSK (human)) was 24%. For the same molecule, the kinase still bound, per cent of control (DAPK2 (human)) was 22%, the kinase still bound, per cent of control (DCLK3 (human)) was 48% and the kinase still bound, per cent of control (EIF2AK1 (human)) was 100%. For the same molecule, the kinase still bound, per cent of control (EPHA4 (human)) was 100%, the kinase still bound, per cent of control (FER (human)) was 47% and the kinase still bound, per cent of control (FGFR4 (human)) was 1.8%. For the same molecule, the kinase still bound, per cent of control (HIPK2 (human)) was 1.6%, the kinase still bound, per cent of control (HIPK3 (human)) was 3.7% and the kinase still bound, per cent of control (INSRR (human)) was 4.8%. For the same molecule, the kinase still bound, per cent of control (LIMK1 (human)) was 38%, the kinase still bound, per cent of control (MAP3K12 (human)) was 21% and the kinase still bound, per cent of control (MAP3K6 (human)) was 49%. For the same molecule, the kinase still bound, per cent of control (MAP4K2 (human)) was 0.15%, the kinase still bound, per cent of control (MAP4K5 (human)) was 9.6% and the kinase still bound, per cent of control (MYLK (human)) was 34%. The kinase still bound, per cent of control (NEK11 (human)) was 85%, the kinase still bound, per cent of control (NEK4 (human)) was 9.4% and the kinase still bound, per cent of control (NEK9 (human)) was 4.6%. It also gave a kinase still bound, per cent of control (PIM1 (human)) of 87%, a kinase still bound, per cent of control (PRKAA1 (human)) of 0.35% and a kinase still bound, per cent of control (PRKCQ (human)) of 3.6%. For the same molecule, the kinase still bound, per cent of control (ROS1 (human)) was 97%, the kinase still bound, per cent of control (RPS6KB1 (human)) was 3.2% and the kinase still bound, per cent of control (SRC (human)) was 4%. The kinase still bound, per cent of control (SRPK1 (human)) was 4.2%, the kinase still bound, per cent of control (STK32B (human)) was 100% and the kinase still bound, per cent of control (STK39 (human)) was 63%. The kinase still bound, per cent of control (TNIK (human)) was 0.8%.
`O=C1NC(=O)/C(=C/c2ccc3nccc(-c4ccncc4)c3c2)S1` was tested, and the kinase still bound, per cent of control (ACVRL1 (human)) was 85%, the kinase still bound, per cent of control (AKT3 (human)) was 100% and the kinase still bound, per cent of control (AURKA (human)) was 69%. It also gave a kinase still bound, per cent of control (AURKC (human)) of 56%, a kinase still bound, per cent of control (BMPR2 (human)) of 100% and a kinase still bound, per cent of control (BRSK2 (human)) of 91%. It also gave a kinase still bound, per cent of control (CAMK1D (human)) of 57%, a kinase still bound, per cent of control (CAMK2D (human)) of 10% and a kinase still bound, per cent of control (CASK (human)) of 59%. The kinase still bound, per cent of control (CDC42BPB (human)) was 66%, the kinase still bound, per cent of control (CHEK2 (human)) was 57% and the kinase still bound, per cent of control (CSK (human)) was 80%. It also gave a kinase still bound, per cent of control (DAPK2 (human)) of 1.7%, a kinase still bound, per cent of control (DCLK3 (human)) of 11% and a kinase still bound, per cent of control (EIF2AK1 (human)) of 82%. For the same molecule, the kinase still bound, per cent of control (EPHA4 (human)) was 96%, the kinase still bound, per cent of control (FER (human)) was 50% and the kinase still bound, per cent of control (FGFR4 (human)) was 59%. It also gave a kinase still bound, per cent of control (HIPK2 (human)) of 0.15%, a kinase still bound, per cent of control (HIPK3 (human)) of 1.2% and a kinase still bound, per cent of control (INSRR (human)) of 70%. For the same molecule, the kinase still bound, per cent of control (LIMK1 (human)) was 88%, the kinase still bound, per cent of control (MAP3K12 (human)) was 96% and the kinase still bound, per cent of control (MAP3K6 (human)) was 96%. For the same molecule, the kinase still bound, per cent of control (MAP4K2 (human)) was 5.8%, the kinase still bound, per cent of control (MAP4K5 (human)) was 41% and the kinase still bound, per cent of control (MYLK (human)) was 19%. It also gave a kinase still bound, per cent of control (NEK11 (human)) of 72%, a kinase still bound, per cent of control (NEK4 (human)) of 96% and a kinase still bound, per cent of control (NEK9 (human)) of 95%. It also gave a kinase still bound, per cent of control (PIM1 (human)) of 1%, a kinase still bound, per cent of control (PRKAA1 (human)) of 88% and a kinase still bound, per cent of control (PRKCQ (human)) of 60%. It also gave a kinase still bound, per cent of control (ROS1 (human)) of 78%, a kinase still bound, per cent of control (RPS6KB1 (human)) of 53% and a kinase still bound, per cent of control (SRC (human)) of 69%. It also gave a kinase still bound, per cent of control (SRPK1 (human)) of 100%, a kinase still bound, per cent of control (STK32B (human)) of 100% and a kinase still bound, per cent of control (STK39 (human)) of 71%. For the same molecule, the kinase still bound, per cent of control (TNIK (human)) was 36%.
